# Assay results taken from patent publication US20100056563A1, “NOVEL 1.8-NAPHTHYRIDINE COMPOUNDS” (priority 2007, published 2010).
# Target: T1, FLAG-tagged full length PHD2 (Homo sapiens, UniProt Q9GZT9)
# T1 construct: FLAG-tagged full length PHD2; FLAG; made in house; host or cells: baculovirus-infected Sf9 cells
# Experiment: HIF-PHD2 time resolved fluorescence inhibition assay (HIF-1α peptide hydroxylation, VHL complex detection)
# Assay type: biochemical
# Details: 0.2 μM 2-oxoglutarate, 0.5 μM HIF-1α peptide, 2 hr at room temperature
# Procedure: To each well of a 96-well plate was added […] of test compound in DMSO and 20 μl of assay buffer (50 mM Tris pH 7.4/0.01% Tween-20/0.1 mg/ml bovine serum albumin/10 μM ferrous sulfate/1 mM sodium ascorbate/20 μg/ml catalase) containing 0.15 μg/ml FLAG-tagged full length PHD2 expressed in and purified from baculovirus-infected Sf9 cells. After a […] preincubation at room temperature, the enzymatic reactions were initiated by the addition of 4 μL of substrates (final concentrations of 0.2 μM 2-oxoglutarate and 0.5 μM HIF-1α peptide biotinyl-DLDLEMLAPYIPMDDDFQL). After 2 hr at room temperature, the reactions were terminated and signals were developed by the addition of a 25 μL quench/detection mix to a final concentration of 1 mM ortho-phenanthroline, 0.1 mM EDTA, 0.5 nM anti-(His)6 LANCE reagent (Perkin-Elmer Life Sciences), 100 nM AF647-labeled streptavidin (Invitrogen), and 2 μg/ml (His)6-VHL complex (S. Tan (2001) Protein Expr. Purif. 21, 224-234). The ratio of time resolved fluorescence signals at 665 and 620 nm was determined, and percent inhibition was calculated relative to an uninhibited control sample run in parallel.
# T1 sequence (Q9GZT9 whole entry): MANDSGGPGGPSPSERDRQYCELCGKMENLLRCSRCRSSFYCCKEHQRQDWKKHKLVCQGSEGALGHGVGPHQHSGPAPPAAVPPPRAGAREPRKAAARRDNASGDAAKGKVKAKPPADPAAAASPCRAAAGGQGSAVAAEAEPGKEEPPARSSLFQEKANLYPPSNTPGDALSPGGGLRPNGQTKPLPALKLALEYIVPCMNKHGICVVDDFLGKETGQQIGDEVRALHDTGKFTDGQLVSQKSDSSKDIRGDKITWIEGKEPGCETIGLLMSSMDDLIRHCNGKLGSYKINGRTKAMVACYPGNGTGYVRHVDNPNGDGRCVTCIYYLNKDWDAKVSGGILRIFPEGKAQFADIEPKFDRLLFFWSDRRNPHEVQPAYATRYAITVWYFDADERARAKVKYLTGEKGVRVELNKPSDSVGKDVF
row,Structure (SMILES),IC50 [nM]
1,"O=C(O)CNC(=O)c1c(O)c2cccnc2n(Cc2ccc(C(F)(F)F)cc2)c1=O [Example 1, N-({4-Hydroxy-2-oxo-1-[4-(trifluoromethyl)benzyl]-1,2-dihydro-1,8-naphthyridin-3-yl}carbonyl)glycine]",2.1
2,"O=C(O)CNC(=O)c1c(O)c2cccnc2n(Cc2ccc(Cl)cc2)c1=O [Example 2, N-{[1-(4-Chlorobenzyl)-4-hydroxy-2-oxo-1,2-dihydro-1,8-naphthyridin-3-yl]carbonyl}glycine]",1.6
3,"O=C(O)CNC(=O)c1c(O)c2cccnc2n(Cc2ccc(Br)cc2)c1=O [Example 3, N-{[1-(4-Bromobenzyl)-4-hydroxy-2-oxo-1,2-dihydro-1,8-naphthyridin-3-yl]carbonyl}glycine]",1.9
4,"N#Cc1ccc(Cn2c(=O)c(C(=O)NCC(=O)O)c(O)c3cccnc32)cc1 [Example 4, N-{[1-(4-Cyanobenzyl)-4-hydroxy-2-oxo-1,2-dihydro-1,8-naphthyridin-3-yl]carbonyl}glycine]",1.6
5,"Cc1ccc(Cn2c(=O)c(C(=O)NCC(=O)O)c(O)c3cccnc32)cc1 [Example 5, N-{[1-(4-Methylbenzyl)-4-hydroxy-2-oxo-1,2-dihydro-1,8-naphthyridin-3-yl]carbonyl}glycine]",1.8
6,"O=C(O)CNC(=O)c1c(O)c2cccnc2n(Cc2ccc(C(F)(F)F)cc2F)c1=O [Example 6, N-{[1-(2-Fluoro-4-trifluoromethylbenzyl)-4-hydroxy-2-oxo-1,2-dihydro-1,8-naphthyridin-3-yl]carbonyl}glycine]",1.6
7,"COc1ccc2c(O)c(C(=O)NCC(=O)O)c(=O)n(Cc3ccc(C(F)(F)F)cc3)c2n1 [Example 7, N-({4-Hydroxy-7-methoxy-2-oxo-1-[4-(trifluoromethyl)benzyl]-1,2-dihydro-1,8-naphthyridin-3-yl}carbonyl)glycine]",1.5
8,"O=C(O)CNC(=O)c1c(O)c2cccnc2n(Cc2nc3ccccc3s2)c1=O [Example 8, N-{[1-(1,3-Benzothiazol-2-ylmethyl)-4-hydroxy-2-oxo-1,2-dihydro-1,8-naphthyridin-3-yl]carbonyl}glycine]",0.7
9,"O=C(O)CNC(=O)c1c(O)c2cc(I)cnc2n(Cc2ccc(C(F)(F)F)cc2)c1=O [Example 9, N-({4-Hydroxy-6-iodo-2-oxo-1-[4-(trifluoromethyl)benzyl]-1,2-dihydro-1,8-naphthyridin-3-yl}carbonyl)glycine]",1.3
10,"N#Cc1cnc2c(c1)c(O)c(C(=O)NCC(=O)O)c(=O)n2Cc1ccc(C(F)(F)F)cc1 [Example 10, N-({6-Cyano-4-hydroxy-2-oxo-1-[4-(trifluoromethyl)benzyl]-1,2-dihydro-1,8-naphthyridin-3-yl}carbonyl)glycine]",1.2
11,"C[C@H](NC(=O)c1c(O)c2cccnc2n(Cc2ccc(C(F)(F)F)cc2)c1=O)C(=O)O [Example 11, N-({4-Hydroxy-2-oxo-1-[4-(trifluoromethyl)benzyl]-1,2-dihydro-1,8-naphthyridin-3-yl}carbonyl)-L-alanine]",6
12,"C[C@@H](NC(=O)c1c(O)c2cccnc2n(Cc2ccc(C(F)(F)F)cc2)c1=O)C(=O)O [Example 12, N-({4-Hydroxy-2-oxo-1-[4-(trifluoromethyl)benzyl]-1,2-dihydro-1,8-naphthyridin-3-yl}carbonyl)-D-alanine]",1100
13,"NC(=O)c1ccc(Cn2c(=O)c(C(=O)NCC(=O)O)c(O)c3cccnc32)cc1 [Example 13, N-({1-[4-(Aminocarbonyl)benzyl]-4-hydroxy-2-oxo-1,2-dihydro-1,8-naphthyridin-3-yl}carbonyl)glycine]",1.2
14,"O=C(N[C@@H](CO)C(=O)O)c1c(O)c2cccnc2n(Cc2ccc(C(F)(F)F)cc2)c1=O [Example 14, N-({1-[4-(trifluoromethyl)benzyl]-4-hydroxy-2-oxo-1,2-dihydro-1,8-naphthyridin-3-yl}carbonyl)-L-serine]",160
15,"O=C(O)C[C@H](NC(=O)c1c(O)c2cccnc2n(Cc2ccc(C(F)(F)F)cc2)c1=O)C(=O)O [Example 15, N-({1-[4-(trifluoromethyl)benzyl]-4-hydroxy-2-oxo-1,2-dihydro-1,8-naphthyridin-3-yl}carbonyl)-L-aspartic acid]",25
16,"CC[C@H](NC(=O)c1c(O)c2cccnc2n(Cc2ccc(C(F)(F)F)cc2)c1=O)C(=O)O [Example 17, (2S)-2-[({4-Hydroxy-2-oxo-1-[4-(trifluoromethyl)benzyl]-1,2-dihydro-1,8-naphthyridin-3-yl}carbonyl)amino]butanoic acid]",160

row,Structure (SMILES),IC50 [nM]
1,"C#CCn1c(=O)c(C(=O)NCC(=O)O)c(O)c2cccnc21 [Example 18, N-[(4-Hydroxy-2-oxo-1-prop-2-yn-1-yl-1,2-dihydro-1,8-naphthyridin-3-yl)carbonyl]glycine]",21
2,"O=C(O)CNC(=O)c1c(O)c2cccnc2n(Cc2cc(-c3ccccc3)no2)c1=O [Example 19, N-({4-Hydroxy-2-oxo-1-[(3-phenylisoxazol-5-yl)methyl]-1,2-dihydro-1,8-naphthyridin-3-yl}carbonyl)glycine]",0.4
3,"O=C(O)CNC(=O)c1c(O)c2cccnc2n(Cc2noc(-c3ccccc3)n2)c1=O [Example 20, N-({4-Hydroxy-2-oxo-1-[(5-phenyl-1,2,4-oxadiazol-3-yl)methyl]-1,2-dihydro-1,8-naphthyridin-3-yl}carbonyl)glycine]",0.9
4,"O=C(O)CNC(=O)c1c(O)c2cccnc2n(Cc2nc(-c3ccccc3)no2)c1=O [Example 21, N-({4-Hydroxy-2-oxo-1-[(3-phenyl-1,2,4-oxadiazol-5-yl)methyl]-1,2-dihydro-1,8-naphthyridin-3-yl}carbonyl)glycine]",0.8
5,"O=C(O)CNC(=O)c1c(O)c2cccnc2n(Cc2nc(-c3ccccc3)cs2)c1=O [Example 22, N-({4-Hydroxy-2-oxo-1-[(4-phenyl-1,3-thiazol-2-yl)methyl]-1,2-dihydro-1,8-naphthyridin-3-yl}carbonyl)glycine]",0.8
6,"CCOC(=O)Cn1c(=O)c(C(=O)NCC(=O)O)c(O)c2cccnc21 [Example 23, N-{[1-(2-Ethoxy-2-oxoethyl)-4-hydroxy-2-oxo-1,2-dihydro-1,8-naphthyridin-3-yl]carbonyl}glycine]",8.5
7,"O=C(O)CNC(=O)c1c(O)c2cccnc2n(Cc2nc3cc(Cl)ccc3s2)c1=O [Example 24, N-({1-[(5-Chloro-1,3-benzothiazol-2-yl)methyl]-4-hydroxy-2-oxo-1,2-dihydro-1,8-naphthyridin-3-yl}carbonyl)glycine]",1.1
8,"CC(C)(C)c1csc(Cn2c(=O)c(C(=O)NCC(=O)O)c(O)c3cccnc32)n1 [Example 25, N-({1-[(4-tert-Butyl-1,3-thiazol-2-yl)methyl]-4-hydroxy-2-oxo-1,2-dihydro-1,8-naphthyridin-3-yl}carbonyl)glycine]",2
9,"Cc1nc(Cn2c(=O)c(C(=O)NCC(=O)O)c(O)c3cccnc32)sc1C [Example 26, N-({1-[(4,5-Dimethyl-1,3-thiazol-2-yl)methyl]-4-hydroxy-2-oxo-1,2-dihydro-1,8-naphthyridin-3-yl}carbonyl)glycine]",1.3
10,"O=C(O)CNC(=O)c1c(O)c2cccnc2n(Cc2nnc(-c3ccccc3)o2)c1=O [Example 27, N-({4-Hydroxy-2-oxo-1-[(5-phenyl-1,3,4-oxadiazol-2-yl)methyl]-1,2-dihydro-1,8-naphthyridin-3-yl}carbonyl)glycine]",2.6
11,"O=C(O)CNC(=O)c1c(O)c2cccnc2n(Cc2ccc(C(F)(F)F)nc2)c1=O [Example 28, {[(4-Hydroxy-2-oxo-1-{[6-(trifluoromethyl)pyridin-3-yl]methyl}-1,2-dihydro-1,8 naphthyridin-3-yl)carbonyl}amino}acetic acid]",0.85
12,"O=C(O)CNC(=O)c1c(O)c2cc(Cl)cnc2n(Cc2ccc(C(F)(F)F)nc2)c1=O [Example 29, {[(6-Chloro-4-hydroxy-2-oxo-1-{[6-(trifluoromethyl)pyridin-3-yl]methyl}-1,2-dihydro-1,8 naphthyridin-3-yl)carbonyl]amino}acetic acid]",0.65
13,"C[C@H](NC(=O)c1c(O)c2cccnc2n(Cc2nc3ccccc3s2)c1=O)C(=O)O [Example 30, (2S)-2-({[1-(1,3-Benzothiazol-2-ylmethyl)-4-hydroxy-2-oxo-1,2-dihydro-1,8-naphthyridin-3-yl]carbonyl}amino)propanoic acid]",2.7
14,"C[C@H](NC(=O)c1c(O)c2cccnc2n(Cc2nc3cc(Cl)ccc3s2)c1=O)C(=O)O [Example 35, (2S)-2-[({1-[(5-Chloro-1,3-benzothiazol-2-yl)methyl]-4-hydroxy-2-oxo-1,2-dihydro-1,8-naphthyridin-3-yl}carbonyl)amino]propanoic acid]",5.9
15,"C[C@H](NC(=O)c1c(O)c2cccnc2n(Cc2ccc(C(F)(F)F)nc2)c1=O)C(=O)O [Example 38, (2S)-2-{[(4-Hydroxy-2-oxo-1-{[6-(trifluoromethyl)pyridin-3-yl]methyl}-1,2-dihydro-1,8-naphthyridin-3-yl)carbonyl]amino}propanoic acid]",2.7
16,"C[C@H](NC(=O)c1c(O)c2cccnc2n(Cc2ccc(C(F)(F)F)cc2F)c1=O)C(=O)O [Example 39, (2S)-2-[({1-[2-Fluoro-4-(trifluoromethyl)benzyl]-4-hydroxy-2-oxo-1,2-dihydro-1,8-naphthyridin-3-yl}carbonyl)amino]propanoic acid]",8.2
